Results reported in ChEMBL document CHEMBL3853343, “Discovery of novel 2',4'-dimethyl-[4,5'-bithiazol]-2-yl amino derivatives as orally bioavailable TRPV4 antagonists for the treatment of pain: Part 2” (Bioorg Med Chem Lett, 2016).
pIC50: −log10 of the molar value.

What was measured:
[1] = Stability in human liver microsomes assessed as parent compound remaining after 30 mins in presence or absence of NADPH; assay type: ADME, microsome; conditions: read-out: Stability
[2] = Stability in rat liver microsomes assessed as parent compound remaining after 30 mins in presence or absence of NADPH; assay type: ADME, microsome; conditions: read-out: Stability
[3] = target: Transient receptor potential cation channel subfamily V member 4 (Homo sapiens, UniProt Q9HBA0); experiment: Antagonist activity at human TRPV4 assessed as inhibition of 4alpha-PDD-induced activation
Sequence of Transient receptor potential cation channel subfamily V member 4 (Homo sapiens, UniProt Q9HBA0) (Q9HBA0 whole entry): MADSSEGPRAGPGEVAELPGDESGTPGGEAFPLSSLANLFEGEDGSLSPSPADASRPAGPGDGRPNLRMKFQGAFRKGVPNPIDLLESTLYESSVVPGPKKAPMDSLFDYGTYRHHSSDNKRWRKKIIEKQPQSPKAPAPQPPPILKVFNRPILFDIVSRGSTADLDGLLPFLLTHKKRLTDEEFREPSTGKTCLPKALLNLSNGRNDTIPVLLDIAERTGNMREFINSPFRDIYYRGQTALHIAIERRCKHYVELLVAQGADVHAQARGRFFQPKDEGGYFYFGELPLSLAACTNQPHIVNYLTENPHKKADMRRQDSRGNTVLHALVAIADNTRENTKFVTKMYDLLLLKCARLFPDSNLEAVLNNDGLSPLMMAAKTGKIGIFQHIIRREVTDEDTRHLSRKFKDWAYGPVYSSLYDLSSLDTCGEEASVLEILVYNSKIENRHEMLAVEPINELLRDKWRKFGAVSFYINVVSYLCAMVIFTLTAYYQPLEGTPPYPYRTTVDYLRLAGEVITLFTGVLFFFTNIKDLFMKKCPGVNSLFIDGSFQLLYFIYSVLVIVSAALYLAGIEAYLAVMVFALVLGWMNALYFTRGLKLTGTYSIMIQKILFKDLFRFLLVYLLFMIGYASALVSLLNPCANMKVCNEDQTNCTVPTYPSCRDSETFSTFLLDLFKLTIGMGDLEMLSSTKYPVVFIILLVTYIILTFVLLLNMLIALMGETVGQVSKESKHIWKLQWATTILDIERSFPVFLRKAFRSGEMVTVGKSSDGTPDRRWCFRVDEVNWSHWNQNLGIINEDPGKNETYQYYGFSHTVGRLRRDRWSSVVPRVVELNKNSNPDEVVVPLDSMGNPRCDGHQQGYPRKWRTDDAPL

[4] = Antagonist activity at guinea pig TRPV4 assessed as inhibition of 4alpha-PDD-induced activation; parameters: species or system Cavia porcellus
[5] = target: Transient receptor potential cation channel subfamily V member 4 (Rattus norvegicus, UniProt Q9ERZ8); experiment: Antagonist activity at rat TRPV4 assessed as inhibition of 4alpha-PDD-induced activation
Sequence of Transient receptor potential cation channel subfamily V member 4 (Rattus norvegicus, UniProt Q9ERZ8) (Q9ERZ8 whole entry): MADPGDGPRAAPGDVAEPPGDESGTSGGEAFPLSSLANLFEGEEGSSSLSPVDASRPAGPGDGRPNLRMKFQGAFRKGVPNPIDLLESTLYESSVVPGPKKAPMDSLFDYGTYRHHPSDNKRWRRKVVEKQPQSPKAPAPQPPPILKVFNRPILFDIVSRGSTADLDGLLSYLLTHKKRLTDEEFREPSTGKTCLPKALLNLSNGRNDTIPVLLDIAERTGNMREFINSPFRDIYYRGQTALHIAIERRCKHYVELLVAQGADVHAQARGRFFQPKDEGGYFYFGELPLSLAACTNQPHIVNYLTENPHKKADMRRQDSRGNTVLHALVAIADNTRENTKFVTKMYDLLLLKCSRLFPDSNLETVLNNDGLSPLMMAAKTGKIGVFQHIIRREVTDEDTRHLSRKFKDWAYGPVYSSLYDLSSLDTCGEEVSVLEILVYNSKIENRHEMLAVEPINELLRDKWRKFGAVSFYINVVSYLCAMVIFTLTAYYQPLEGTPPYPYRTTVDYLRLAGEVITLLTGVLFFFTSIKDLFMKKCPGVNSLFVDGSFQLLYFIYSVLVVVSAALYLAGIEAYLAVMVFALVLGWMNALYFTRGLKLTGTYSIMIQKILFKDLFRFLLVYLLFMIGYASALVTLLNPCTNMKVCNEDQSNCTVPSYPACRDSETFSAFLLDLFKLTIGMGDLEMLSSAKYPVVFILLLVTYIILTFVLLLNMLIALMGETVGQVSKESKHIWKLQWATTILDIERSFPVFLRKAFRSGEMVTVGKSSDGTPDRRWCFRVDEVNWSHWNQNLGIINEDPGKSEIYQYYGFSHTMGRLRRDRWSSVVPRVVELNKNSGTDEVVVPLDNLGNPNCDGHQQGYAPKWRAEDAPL

[6] = Selectivity ratio of IC50 for rat TRPV4 to IC50 for human TRPV4
[7] = tested on: Cavia porcellus; experiment: Analgesic activity in po dosed Dunkin-Hartley guinea pig complete Freund's adjuvant-induced mechanical hyperalgesia model assessed as reversal in paw withdrawal threshold measured up to 6 hrs post dose relative to control; assay type: functional
[8] = Ratio of free plasma concentration to IC50 for TRPV4 in guinea pig; assay type: ADME, cell-free, Cavia porcellus
[9] = Plasma concentration in po dosed Dunkin-Hartley guinea pig complete Freund's adjuvant-induced mechanical hyperalgesia model measured up to 6 hrs post dose; assay type: ADME, organism-based, Cavia porcellus
[10] = Protein binding in guinea pig; assay type: ADME, Cavia porcellus; conditions: read-out: PB (converted)
[11] = tested on: Rattus norvegicus; experiment: Analgesic activity in rat assessed as reversal of complete Freund's adjuvant-induced mechanical hyperalgesia at 30 mg/kg, po after 5 hrs relative to control; assay type: functional
[12] = tested on: Rattus norvegicus; experiment: Analgesic activity in rat assessed as reversal of complete Freund's adjuvant-induced mechanical hyperalgesia at 30 mg/kg, po after 1 hr relative to control; assay type: functional

SMILES: Cc1nc(C)c(-c2csc(Nc3ccc(C(=O)N4C5CCC4CN(C4CCCCC4)C5)cn3)n2)s1
- remaining at 0.5 h [1]: 0.58%
- remaining at 0.5 h [2]: 0%
- pIC50 [3]: 8.55

SMILES: COC(=O)N1CCN(C(=O)c2ccc(Nc3nc(-c4sc(C)nc4C)cs3)nc2)C(C(F)(F)F)C1 (stereo not given)
- pIC50 [4]: 8.57
- pIC50 [5]: 7.82
- remaining at 0.5 h [1]: 64.1%
- remaining at 0.5 h [2]: 49.2%
- pIC50 [3]: 9.24

SMILES: Cc1nc(C)c(-c2csc(Nc3ccc(C(=O)N4C5CCC4CN(CC(F)(F)F)C5)cn3)n2)s1
- remaining at 0.5 h [1]: 0%
- remaining at 0.5 h [2]: 8.5%
- pIC50 [3]: 8.68

SMILES: CNC(=O)N1CC2CCC(C1)N2C(=O)c1ccc(Nc2nc(-c3sc(C)nc3C)cs2)nc1
- remaining at 0.5 h [1]: 83.5%
- remaining at 0.5 h [2]: 88.5%
- pIC50 [3]: 6.11

SMILES: Cc1nc(C)c(-c2csc(Nc3ccc(C(=O)N4[C@@H]5CC[C@H]4C/C(=N/OCC(F)(F)F)C5)cn3)n2)s1
- pIC50 [4]: 8.70
- pIC50 [5]: 7.74
- remaining at 0.5 h [1]: 47.7%
- remaining at 0.5 h [2]: 50.4%
- pIC50 [3]: 9.44

SMILES: COC(=O)N1CC2CCCC(C1)N2C(=O)c1ccc(Nc2nc(-c3sc(C)nc3C)cs2)nc1
- remaining at 0.5 h [1]: 33.7%
- remaining at 0.5 h [2]: 43.8%
- pIC50 [3]: 8.74

SMILES: COC(=O)N1CC2CCC(C1)N2C(=O)c1ccc(Nc2nc(-c3sc(C)nc3C)cs2)nc1
- pIC50 [4]: 8.70
- pIC50 [5]: 7.28
- remaining at 0.5 h [1]: 48.6%
- remaining at 0.5 h [2]: 53%
- pIC50 [3]: 8.77

SMILES: Cc1nc(C)c(-c2csc(Nc3ccc(C(=O)N4C5CCC4CN(c4ncc(Cl)cn4)C5)cn3)n2)s1
- pIC50 [4]: 8.70
- pIC50 [5]: 7.80
- remaining at 0.5 h [1]: 76.4%
- remaining at 0.5 h [2]: 68.4%
- pIC50 [3]: 9.52

SMILES: Cc1nc(C)c(-c2csc(Nc3ccc(C(=O)N4[C@@H]5CC[C@H]4C/C(=N/OCCO)C5)cn3)n2)s1
- remaining at 0.5 h [1]: 84.9%
- remaining at 0.5 h [2]: 74.5%
- pIC50 [3]: 8.22

SMILES: Cc1nc(C)c(-c2csc(Nc3ccc(C(=O)N4[C@@H]5CC[C@H]4C[C@@H](Oc4ncc(C(F)(F)F)cn4)C5)cn3)n2)s1
- pIC50 [4]: 8.57
- pIC50 [5]: 6.92
- pIC50 [3]: 8.32

SMILES: Cc1nc(C)c(-c2csc(Nc3ccc(C(=O)N4[C@@H]5CC[C@H]4C/C(=N/OC[C@@H](O)C(F)(F)F)C5)cn3)n2)s1
- pIC50 [4]: 8.64
- pIC50 [5]: 7.54
- remaining at 0.5 h [1]: 43%
- remaining at 0.5 h [2]: 49.6%
- pIC50 [3]: 8.96

SMILES: Cc1nc(C)c(-c2csc(Nc3ccc(C(=O)N4C5CCC4CN(c4ccc(Cl)cn4)C5)cn3)n2)s1
- pIC50 [4]: 9.15
- pIC50 [5]: 7.70
- remaining at 0.5 h [1]: 72.7%
- remaining at 0.5 h [2]: 89%
- pIC50 [3]: 9.05

SMILES: Cc1nc(C)c(-c2csc(Nc3ccc(C(=O)N4C5CCC4CC(=O)C5)cn3)n2)s1
- pIC50 [4]: 7.35
- pIC50 [5]: 6.44
- Ratio IC50 [6]: 15
- pIC50 [3]: 7.62

SMILES: Cc1nc(C)c(-c2csc(Nc3ccc(C(=O)N4[C@@H]5CC[C@H]4C[C@@H](CO)C5)cn3)n2)s1
- pIC50 [3]: 7.39

SMILES: Cc1nc(C)c(-c2csc(Nc3ccc(C(=O)N4[C@@H]5CC[C@H]4C[C@@H](O)C5)cn3)n2)s1
- pIC50 [4]: 7.48
- pIC50 [5]: 6.00
- pIC50 [3]: 7.49

SMILES: Cc1nc(C)c(-c2csc(Nc3ccc(C(=O)N4[C@@H]5CC[C@H]4C[C@@H](N)C5)cn3)n2)s1
- pIC50 [3]: 6.28

SMILES: Cc1c(C(=O)Nc2cccc(C(F)(F)F)c2)cc(-c2ccccc2)n1CCCN1CCOCC1
- pIC50 [3]: 7.24

SMILES: Cc1nc(C)c(-c2csc(Nc3ccc(C(=O)N4[C@@H]5CC[C@H]4C[C@@H](NC(=O)CC(F)(F)F)C5)cn3)n2)s1
- pIC50 [3]: 7.72

SMILES: Cc1nc(C)c(-c2csc(Nc3ccc(C(=O)N4[C@@H]5CC[C@H]4C[C@@H](OC(=O)NCCF)C5)cn3)n2)s1
- pIC50 [4]: 8.21
- pIC50 [5]: 6.54
- pIC50 [3]: 8.17

SMILES: Cc1nc(C)c(-c2csc(Nc3ccc(C(=O)N4[C@@H]5CC[C@H]4C/C(=N/O)C5)cn3)n2)s1
- remaining at 0.5 h [1]: 80.5%
- remaining at 0.5 h [2]: 38.8%
- pIC50 [3]: 8.08

SMILES: Cc1nc(C)c(-c2csc(Nc3ccc(C(=O)N4C5COCC4CC(=O)C5)cn3)n2)s1
- pIC50 [4]: 7.57
- Activity [7]: 30.8%
- pIC50 [5]: 6.10
- Ratio [8]: 1.9
- Ratio IC50 [6]: 42
- concentration at 6 h [9]: 515 ng/mL
- fraction unbound [10]: 0.1
- pIC50 [3]: 7.72

SMILES: Cc1nc(C)c(-c2csc(Nc3ccc(C(=O)N4[C@@H]5CC[C@H]4C[C@@H](OCCO)C5)cn3)n2)s1
- pIC50 [4]: 8.00
- pIC50 [5]: 6.70
- pIC50 [3]: 8.21

SMILES: Cc1nc(C)c(-c2csc(Nc3ccc(C(=O)N4C5CCC4CN(c4ccc(Cl)cc4)C5)cn3)n2)s1
- pIC50 [4]: 8.06
- pIC50 [5]: 6.39
- remaining at 0.5 h [1]: 72.6%
- remaining at 0.5 h [2]: 68.3%
- pIC50 [3]: 8.49

SMILES: Cc1nc(C)c(-c2csc(Nc3ccc(C(=O)N4[C@@H]5CC[C@H]4C/C(=N/OCC(N)=O)C5)cn3)n2)s1
- remaining at 0.5 h [1]: 89%
- remaining at 0.5 h [2]: 84.8%
- pIC50 [3]: 7.62

SMILES: Cc1nc(C)c(-c2csc(Nc3ccc(C(=O)N4[C@@H]5CC[C@H]4C[C@H](O)C5)cn3)n2)s1
- pIC50 [3]: 6.19

SMILES: Cc1nc(C)c(-c2csc(Nc3ccc(C(=O)N4C5CNCC4COC5)cn3)n2)s1
- pIC50 [4]: 8.37
- pIC50 [5]: 7.00
- remaining at 0.5 h [1]: 57.9%
- remaining at 0.5 h [2]: 71.5%
- pIC50 [3]: 8.49

SMILES: Cc1nc(C)c(-c2csc(Nc3ccc(C(=O)N4[C@@H]5CC[C@H]4C/C(=N/OC4CCN(C)CC4)C5)cn3)n2)s1
- pIC50 [4]: 8.19
- pIC50 [5]: 7.24
- remaining at 0.5 h [1]: 77%
- remaining at 0.5 h [2]: 83.7%
- pIC50 [3]: 8.35

SMILES: CCNC(=O)O[C@H]1C[C@H]2CC[C@@H](C1)N2C(=O)c1ccc(Nc2nc(-c3sc(C)nc3C)cs2)nc1
- pIC50 [3]: 8.72

SMILES: CC(=O)N1CC2CCC(C1)N2C(=O)c1ccc(Nc2nc(-c3sc(C)nc3C)cs2)nc1
- pIC50 [4]: 7.68
- pIC50 [5]: 6.22
- remaining at 0.5 h [1]: 59.4%
- remaining at 0.5 h [2]: 92.1%
- pIC50 [3]: 7.49

SMILES: Cc1nc(C)c(-c2csc(Nc3ccc(C(=O)N4[C@@H]5CC[C@H]4C/C(=N/OCCCO)C5)cn3)n2)s1
- pIC50 [4]: 8.48
- pIC50 [5]: 7.24
- remaining at 0.5 h [1]: 64.5%
- remaining at 0.5 h [2]: 59.1%
- pIC50 [3]: 8.54

SMILES: Cc1nc(C)c(-c2csc(Nc3ccc(C(=O)N4C5CCC4CNC5)cn3)n2)s1
- remaining at 0.5 h [1]: 64.9%
- remaining at 0.5 h [2]: 63.9%
- pIC50 [3]: 6.21

SMILES: CO/N=C1\C[C@H]2CC[C@@H](C1)N2C(=O)c1ccc(Nc2nc(-c3sc(C)nc3C)cs2)nc1
- remaining at 0.5 h [1]: 79.1%
- remaining at 0.5 h [2]: 12.5%
- pIC50 [3]: 9.00

SMILES: COC(=O)N1CCN(C(=O)c2ccc(Nc3nc(-c4sc(C)nc4C)cs3)nc2)CC1
- pIC50 [4]: 7.25
- pIC50 [5]: 5.96
- remaining at 0.5 h [1]: 94.1%
- remaining at 0.5 h [2]: 77.9%
- pIC50 [3]: 7.43

SMILES: CC(=O)N[C@H]1C[C@H]2CC[C@@H](C1)N2C(=O)c1ccc(Nc2nc(-c3sc(C)nc3C)cs2)nc1
- pIC50 [3]: 7.10

SMILES: CO[C@H]1C[C@H]2CC[C@@H](C1)N2C(=O)c1ccc(Nc2nc(-c3sc(C)nc3C)cs2)nc1
- pIC50 [3]: 8.62

SMILES: COc1ccc2c(c1)c(CC(=O)O)c(C)n2C(=O)c1ccc(Cl)cc1 [INDOMETHACIN]
- Activity [11]: 6.1%
- Activity [12]: 11.4%

SMILES: Cc1nc(C)c(-c2csc(Nc3ccc(C(=O)N4[C@@H]5CC[C@H]4CC(=NOCC(C)(C)O)C5)cn3)n2)s1
- pIC50 [4]: 8.08
- remaining at 0.5 h [1]: 70%
- remaining at 0.5 h [2]: 75.5%
- pIC50 [3]: 8.36
